The source of these data is patent publication US20200316159A1, “SUSTAINED RELEASE COMPOSITIONS OF KAPPA-OPIOID RECEPTOR AGONIST” (JT PHARMACEUTICALS, INC., priority 2016, published 2020).

Series [1] deals with dysphoria (time spent immobile). Kind of series: Forced swim assay. The class given is in vivo, rat. Here is the method:
The most common reason for discontinuing development of kappa agonists is the induction of dysphoria, which is mediated through CNS kappa receptors. To test for this side effect, we used an established model: the repeated forced swim assay. Rats were placed in a container with 30° C. water without an escape avenue. Time spent immobile during the last 4 min of each trial was recorded. Immobility was defined by a posture in which the forelimbs were motionless in front of the body, hind legs display limited motion, and the tail is directed outward. On day one, rats were placed in the water for 15 min. On the following day, placements consisted of four trials lasting 6 min each, separated by 10 mins. Salvorin A (1 mg/kg, i.p.) or JT09 (20 mg/kg, p.o.) were administered immediately before the first placement. Time spent immobile is a diagnostic of dysphoria and typically increases with each trial. Salvinorin A (a centrally available kappa agonist) was used as a positive control due to its known […] effects such as dysphoria.

In series [2] the target is kappa opioid receptor (Homo sapiens, UniProt P41145). The series is described as follows: Opioid receptor activation assay, DiscoveRx PathHunter Beta-Arrestin, kappa. The class given is cell-based. The source says: Opioid Receptor Activation Assay.
Sequence of kappa opioid receptor (P41145 whole entry, the tested form may be a part): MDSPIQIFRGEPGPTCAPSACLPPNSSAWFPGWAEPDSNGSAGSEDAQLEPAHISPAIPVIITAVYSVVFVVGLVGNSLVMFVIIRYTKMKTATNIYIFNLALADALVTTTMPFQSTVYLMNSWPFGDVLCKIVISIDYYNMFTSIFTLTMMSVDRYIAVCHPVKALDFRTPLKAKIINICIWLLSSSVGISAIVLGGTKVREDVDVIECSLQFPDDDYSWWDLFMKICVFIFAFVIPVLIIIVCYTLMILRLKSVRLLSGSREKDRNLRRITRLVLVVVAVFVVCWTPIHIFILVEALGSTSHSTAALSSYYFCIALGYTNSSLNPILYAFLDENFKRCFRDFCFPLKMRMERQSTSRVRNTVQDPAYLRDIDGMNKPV
PathHunter™ Beta-Arrestin GPCR Functional Profiling and Screening cell lines that express the individual opioid receptors were obtained from DiscoveRx (Fremont, Calif.). These cells express the kappa (or mu or delta) opioid receptor fused to a proprietary β-galactosidase enzyme fragment and the […]-arrestin gene fused to an enzyme acceptor (the remaining fragment of β-galactosidase). Upon activation of the receptor, β-arrestin is recruited to the GPCR and the β-galactosidase is activated through enzyme complementation. Cells were grown using standard cell culture techniques and then plated at 30,000 cells/well in 90 μl in a 96 well white, clear bottom plate and incubated overnight. Dilutions were prepared in dilution buffer (HBBS, 20 mMHepes, 0.1% BSA) and 10 μl added per well. Plates were then incubated for 90 min at 37° C. in a water-saturated atmosphere. Plates were then allowed to come to room temp and DiscoveRx's proprietary developing agent added as recommended by the manufacturer. This agent contains a detergent, 6-O-β-galactopyranosyl-luciferen and luciferase. Plates were then incubated for 1 hr at room temperature before being read on a luminometer. Antagonist studies were performed in an identical manner except after the overnight incubation 10 μl media was removed and replaced with drug or naloxone at the indicated concentration. […] To calculate % maximal luminescence, background was subtracted from the experimental values and this was divided by maximal luminescence and multiplied by 100.
To confirm this, and to determine their relative activities, we assessed their efficiency using PathHunter™ Beta-Arrestin GPCR Functional Profiling and Screening cell lines from DiscoveRx (Fremont, Calif.) as described in the Materials and Methods section.

“Also recorded” adds a separate entry of the source.

As to `CCCC[C@@H](NC(=O)[C@@H](Cc1ccccc1)NC(=O)[C@H](N)Cc1ccccc1)C(=O)N[C@H](CCCCN(C)C)C(=O)NCc1ccncc1` [Compound 9], in series [1] (20 mg/kg p.o., listed as JT09), the “immobility time in forced swim versus saline” value is given as “statistically indistinguishable; also recorded: did not induce more than a baseline time of immobility”. In addition, the “immobility time in forced swim relative to salvinorin A” value in series [1] (JT09 20 mg/kg p.o. versus salvinorin A 1 mg/kg i.p., all trials) is given as “lower amounts of time spent immobile”. The “EC50, activation of kappa opioid receptor” value in series [2] (PathHunter Beta-Arrestin) is “low nM range”. The EC50 in series [2] (PathHunter Beta-Arrestin, 3-6 repeats, read-out: 95% confidence levels of EC50, activation of kappa receptors) is 15.3 to 54.5 nM. Further, the “agonist selectivity for kappa over both mu- and delta-opioid receptors” value in series [2] (minimal estimate) is on record as > 33,400.

A word on the EC50: it is the concentration needed to bring the measured effect to its halfway point.
